From patent publication US20210388319A1, “EXPANSION OF HEMATOPOIETIC STEM CELLS” (Mesoblast International Sarl, priority 2018, published 2021) come the findings set out here.

Test [1] relates to CB CD34+ cells (cord blood derived CD34+ HSCs). As to the kind of experiment: Co-culture of cord blood CD34+ cells with MPCs and small molecules, 4-colour flow cytometric analysis. In kind it is cell-based, human. The note with it: for expansion of CD34+ cells with the primitive HSC phenotype CD34+CD45RA− CD90+CD49f+: day 10, presence of MPCs and HDACi versus absence of MPCs or a HDACi (FIG. 9). On the procedure: • Cells: CB CD34+ (Stem Cell Technologies) • Medium: StemSpan SFEM (StemCell Technologies) supplemented with: • Human low density lipoprotein (Stem Cell Technologies) 10 μg/ml • Growth Factors (‘SFT’): • rHu-SCF 100 ng/ml • rHu-FLT3Ligand 100 ng/ml • rHu-TPO 50 ng/ml • (All recombinant cytokines are from R&D Systems) • Small Molecules: • SR1 (500 nM); UM171 (35 nM); Trichostatin A (TSA, 50 nM); Valproic Acid (VPA, 500 μM) (all from Stem Cell Technologies) • Assay conditions: • Day −1 MPC (MCBCC006) plated at 50,000/well in 2×24-well plates in Alpha-MEM/10% FBS • Day 0 10,000 CD34+ cells per well plated into each well of two 24 well plates. MPC containing wells were first washed to remove FBS medium. • The remaining CD34+ cells were cultured at the same concentration in a T-25 flask in StemSpan/SFT/SR-1+ UM171. This was to provide bulk cells for set up of flow cytometry analysis and to define electronic compensation settings for multicolour analysis. • Day 3 All groups were fed by removing 1.5 mL of media and replacing with 2.0 mL of fresh media+additives. • Day 5 Flow cytometric analysis: 1.5 mL of culture media was harvested from each well. For the suspension (No MPG) groups this was achieved by first aspirating the medium up and down to completely suspend the CD34+ cells before removing 1.5 mL of the suspension. For the +MPG groups, the CD34+ cells were resuspended in such a way that the MPC feeder layer was left intact. After the cells were removed from each well, they were replaced with 2.0 mL of fresh media+additives. A cell count was performed on all wells. This was required to determine not only the incidence of populations identified by FACS analysis, but also their absolute number. • Day 8 All groups were fed by removing 2.0 mL of media and replacing with 2.0 mL of fresh media and additives. • Day 10 Flow cytometric analysis: The complete content of each well was harvested. For the suspension (No MPG) groups this was achieved by first aspirating the medium up and down to completely suspend the CD34+ cells before removing the suspension. For the +MPG groups, the CD34+ cells in suspension were first harvested (as described above for Day 5). CD34+ cells attached to the MPC layer were then detached by a brief exposure (5 mins) to 0.05% trypsin-EDTA in PBS at 37° C., the trypsin quenched in 10% FBS and the detached cells pooled with the previously harvested suspension fraction to represent the Day 10 harvest.
A 4-colour flow cytometric analysis was performed to allow identification and quantitation of CD34+ cells and relevant subpopulations including candidate hematopoietic stem cells (HSC) according to the phenotype CD34+CD45RA− CD90+CD49f+ described for cord blood (Notta et al., (2011) Science 333: 218-221). All antibody conjugates were used at concentrations recommended by the manufacturers.
As noted above, the bulk culture of CD34+ cells in StemSpan/SFT/SR-1+ UM171 was used at both Day 5 and Day 10 to establish settings for flow cytometric analysis and to establish compensation settings. Stains with the following antibody/antibody combinations were performed:
Cord blood derived CD34+ HSCs were cultured in the presence and absence of immunoselected MPCs in the presence of: […]
Background: In flow cytometry, cells or beads pass a laser one at a time.

For test [2], the system named is CD34+CD38-CD45RA− CD90+CD49f+ cells. As to the kind of experiment: Colony-forming unit (CFU) assay in MethoCult H4435 Enriched of FACS-isolated cells. In kind it is cell-based, human. The note with it: cells isolated by FACS after 10 days in co-culture with MPCs, SFV and VPA; colonies scored on day 14. The protocol: FIG. 11: CD34+CD38-CD45RA− CD90+CD49f+ cells isolated by FACS were cultured in MethoCult™ H4435 Enriched (Stem cell Technologies), and tested for colony forming efficiency on day 14 of culture. Overall colony forming efficiency was 0.42%.
CD34+CD38-CD45RA− CD90+CD49f+ cells were isolated by FACS after 10 days in co-culture with MPCs, SFV and VPA. These isolated cells were then cultured in MethoCult™ H4435 Enriched (Stem cell Technologies), which is a complete methylcellulose-based medium containing IL-3, IL-6, G-CSF, GM-CSF, SCF and EPO and useful for growth and enumeration of hematopoietic progenitor cells in colony-forming unit (CFU) assays). Colonies were scored on day 14 of culture and tested for colony forming efficiency. […] Overall colony forming efficiency was 0.42%.

For `CCCC(CCC)C(=O)O` [VPA, Valproic Acid], the “number of CD34+CD45RA− CD90+CD49f+ cells” value in test [1] (after 10 days in co-culture with MPCs, SFV and VPA (500 μM), start about 500 primitive cells) is given as “about 22,000 cells”. Further, the “number of CD34+ cells” value in test [1] (after 10 days in co-culture with MPCs, SFV and VPA (500 μM), start about 10,000 CD34+ cells) is “about 800,000 cells”. The “expansion of CD34+ cells with the primitive HSC phenotype CD34+CD45RA− CD90+CD49f+” value in test [1] is “substantially greater expansion”. The “increase in the number of CD34+CD90+CD49f+ cells” value in test [1] (over a 10 day period, co-culture with MPCs, SFV and VPA) was around 44 fold. In addition, in test [2], the “overall colony forming efficiency” value turned out to be 0.42%.
`CC(/C=C/C(=O)NO)=C\[C@@H](C)C(=O)c1ccc(N(C)C)cc1` [TSA, Trichostatin A]: in test [1], the “expansion of CD34+ cells with the primitive HSC phenotype CD34+CD45RA− CD90+CD49f+” value is listed as “substantially greater expansion”.
